The record followed here is ChEMBL document CHEMBL5518163, “Brazilin-7-acetate, a novel potential drug of Parkinson's disease, hinders the formation of α-synuclein fibril, mitigates cytotoxicity, and decreases oxidative stress” (Eur J Med Chem, 2024).

Molecules are shown by their SMILES. Activity calls are given as the source filed them. The calls are words filed in the database; no cut-off is given here.

Assay [1] concerns Caenorhabditis elegans. Briefly: Antioxidant activity against transgenic Caenorhabditis elegans NL5901 expressing YFP-tagged alpha-synuclein assessed as decrease in MDA content relative to control. Format: functional. Set-up: scale not given: the % may be the effect or the level left.
Assay [2] relates to Caenorhabditis elegans. Briefly: Antioxidant activity against transgenic Caenorhabditis elegans NL5901 expressing YFP-tagged alpha-synuclein assessed as increase in lipid content relative to control. Format: functional.
For assay [3], the target named is Alpha-synuclein (Homo sapiens) (UniProt P37840). Nature of the assay: Inhibition of recombinant alpha-synuclein (unknown origin) fibrillation at 1 to 20 uM measured after 30 mins by ThT fluorescence based spectrofluorometer analysis relative to control. The following applies: dose 1-20 µM.
In assay [4] the test system is PC-12. Nature of the assay: Protection against alpha-synuclein induced rat PC12 cells death assessed as survival rate at alpha-synuclein to compound molar ratio 1:1 pre-incubated with alpha-synuclein for 10 days followed by cell addition and measured after 48 hrs by MTT assay (reference value: 58.07%). In kind it is functional.
Assay [5] deals with Caenorhabditis elegans. Nature of the assay: Antioxidant activity in transgenic Caenorhabditis elegans NL5901 expressing YFP-tagged alpha-synuclein assessed as increase in SOD activity at 100 uM incubated for 5 days (reference value: 33.32 %). Format: functional. The note with it: time 5 day.
Assay [6] relates to Caenorhabditis elegans. Briefly: Improvement in life span of transgenic Caenorhabditis elegans NL5901 expressing YFP-tagged alpha-synuclein assessed as decrease in death rate at 100 uM incubated for 5 days. The note with it: time 5.0 day. Format: functional, organism-based.
Assay [7] deals with PC-12. Briefly: Cytotoxicity against rat PC12 cells assessed as survival rate at 100 uM incubated for 10 days by MTT assay relative to control. In kind it is functional. The following applies: time 10 day. (Tetrazolium dyes change colour on reduction, which living cells bring about.)
Assay [8] has as its system Caenorhabditis elegans. Nature of the assay: In vivo inhibition of alpha-synuclein aggregation in transgenic Caenorhabditis elegans NL5901 expressing YFP-tagged alpha-synuclein assessed as reduction in number of alpha-synuclein aggregates plaques at 100 uM incubated for 5 days by fluorescence based confocal microscope analysis. Format: functional. The note with it: time 5.0 day.

Assay [9] has as its system Caenorhabditis elegans. Nature of the assay: Improvement in movement disorder in transgenic Caenorhabditis elegans NL5901 expressing YFP-tagged alpha-synuclein assessed as increase in number of bends at 100 uM measured on day 5 (reference value: 29.5). In kind it is functional. The note with it: time 5 day.
The subject of assay [10] is Caenorhabditis elegans. Briefly: Antioxidant activity against transgenic Caenorhabditis elegans NL5901 expressing YFP-tagged alpha-synuclein assessed as increase in GSH-PX activity at 100 uM incubated for 5 days (reference value: 46.36 %). In kind it is functional. The note with it: time 5 day.
In assay [11] the test system is Caenorhabditis elegans. Briefly: In vivo inhibition of alpha-synuclein aggregation in transgenic Caenorhabditis elegans NL5901 expressing YFP-tagged alpha-synuclein at 100 uM under L4 stage to adult stage on day 5 and 10 by fluorescence based confocal microscope analysis. The following applies: time 5.0 day. In kind it is functional.
In assay [12] the test system is Caenorhabditis elegans. Briefly: Improvement in life span of transgenic Caenorhabditis elegans NL5901 expressing YFP-tagged alpha-synuclein assessed as increase in lifespan at 100 uM (reference value: 16 day). Format: functional. The following applies: time 5 day.
In assay [13] the test system is Caenorhabditis elegans. Nature of the assay: Improvement in movement disorder in transgenic Caenorhabditis elegans NL5901 expressing YFP-tagged alpha-synuclein assessed as increase in number of bends at 100 uM measured on day 10 (reference value: 11.1). In kind it is functional. The note with it: time 5 day.
The subject of assay [14] is Caenorhabditis elegans. Nature of the assay: Inhibition of oxidative stress in Caenorhabditis elegans NL5901 expressing YFP-tagged alpha-synuclein assessed as decrease in ROS level by measuring average fluorescence intensity at 100 uM incubated for 5 days by DHE staining based confocal laser scanning microscope analysis (reference value: 1600%). In kind it is functional. Set-up: scale not given: the % may be the effect or the level left. The note with it: time 5 day.

Assay [15] has as its system Caenorhabditis elegans. Briefly: Improvement in life span of transgenic Caenorhabditis elegans NL5901 expressing YFP-tagged alpha-synuclein assessed as increase in average lifespan at 100 uM (reference value: 8.52 day). In kind it is functional. The note with it: time 5 day.
The test system of assay [16] is Caenorhabditis elegans. Nature of the assay: Antioxidant activity against transgenic Caenorhabditis elegans NL5901 expressing YFP-tagged alpha-synuclein assessed as decrease in MDA content at 100 uM incubated for 5 days (reference value: 288.94 %). Format: functional. Set-up: scale not given: the % may be the effect or the level left. The note with it: time 5 day.

The subject of assay [17] is PC-12. Briefly: Cytotoxicity against rat PC12 cells assessed as survival rate at 50 uM incubated for 10 days by MTT assay relative to control. In kind it is functional. The note with it: time 10 day.
The subject of assay [18] is PC-12. Nature of the assay: Cytotoxicity against rat PC12 cells assessed as survival rate at 25 uM incubated for 10 days by MTT assay relative to control. In kind it is functional. The note with it: time 10 day.
A short description of assay [19]: In vivo inhibition of alpha-synuclein aggregation in transgenic Caenorhabditis elegans NL5901 expressing YFP-tagged alpha-synuclein assessed as quantity of plaques at 100 uM on day 5 by fluorescence based confocal microscope analysis (reference value: 24.7). The following applies: time 5 day. Format: functional.
Assay [20] has as its system PC-12. Nature of the assay: Protection against alpha-synuclein induced rat PC12 cells death assessed as survival rate at alpha-synuclein to compound molar ratio 1:0.5 pre-incubated with alpha-synuclein for 10 days followed by cell addition and measured after 48 hrs by MTT assay (reference value: 58.07%). In kind it is functional.
Assay [21] is described as follows: In vivo inhibition of alpha-synuclein aggregation in transgenic Caenorhabditis elegans NL5901 expressing YFP-tagged alpha-synuclein assessed as quantity of plaques at 100 uM on day 10 by fluorescence based confocal microscope analysis (reference value: 31.5). Format: functional. The following applies: time 5 day.
The test system of assay [22] is Caenorhabditis elegans. Nature of the assay: Antioxidant activity against transgenic Caenorhabditis elegans NL5901 expressing YFP-tagged alpha-synuclein assessed as increase in lipid content by measuring fluorescence intensity at 100 uM incubated for 5 days by Nile Red staining based confocal laser scanning microscope analysis (reference value: 41.32 %). Format: functional. The following applies: time 5 day.

In assay [23] the test system is PC-12. Briefly: Protection against alpha-synuclein induced rat PC12 cells death assessed as survival rate at alpha-synuclein to compound molar ratio 1:2 pre-incubated with alpha-synuclein for 10 days followed by cell addition and measured after 48 hrs by MTT assay (reference value: 58.07%). In kind it is functional.
The test system of assay [24] is Caenorhabditis elegans. Briefly: Inhibition of oxidative stress in transgenic Caenorhabditis elegans NL5901 expressing YFP-tagged alpha-synuclein assessed as reduction in ROS level by measuring fluorescence intensity at 100 uM incubated for 5 days by DHE staining based confocal laser scanning microscope analysis. In kind it is functional, organism-based. The note with it: time 5.0 day.

Assay [25] concerns PC-12. Briefly: Cytotoxicity against rat PC12 cells assessed as survival rate at 50 to 100 uM incubated for 10 days by MTT assay relative to control. In kind it is functional. The following applies: dose 50-100 µM, time 10 day.

For the molecule `O=C(/C=C/c1ccc(O)c(O)c1)O[C@@H]1C[C@](O)(C(=O)O)C[C@@H](O)[C@H]1O` [CHLOROGENIC ACID], the Activity in assay [1] is recorded as ~50%; in assay [2] it was ~5%.
With `COc1ccc(-c2coc3cc(O)ccc3c2=O)cc1O`, in assay [3], the inhibition (as a rule, the share of the control response that was lost under treatment) was 82.3%.
For `CC(=O)Oc1ccc2c(c1)OC[C@]1(O)Cc3cc(O)c(O)cc3[C@H]21`, the Activity in [4] is listed as 85.21%; in assay [5], 60%; in [7], 60.46%; in [9], 8.4; in assay [10] it was 81.81%; in assay [13] it was 7.6. For the same molecule, the Activity in [14] is on record as 723.6%; in assay [16], 133%; in assay [17] it was 66.74%; in assay [18], 82.15%; in assay [19], 7.2; in assay [20], 72.26%. In addition, the Activity in assay [21] was 16.2; in [22], 57.69%; in [23] it was 93.51%. Further, the result in assay [6] and in assay [24] was Active. Further, the inhibition result in assay [8] and in assay [11] was “Active” throughout. Further, the values for the ILS in [12] and in [15] were 19 days and 10.35 days, respectively.
Consider `Oc1ccc2c(c1)OC[C@]1(O)Cc3cc(O)c(O)cc3[C@H]21` [BRAZILIN], for which the Activity in assay [7] is 60.46%; in assay [25] it was ~20%; in assay [17] it was 66.74%; in [18], 82.15%.
